Where two headings read alike, the source gives them in different places.
Legend:
[1] = system: P3HR1 cells; test: Viable cell counts of P3HR1 cells (toxicity assays and combination treatment with GCV)
Method: The EBV-positive B lymphoma cell line P3HR1 was used throughout these assays. The P3HR1 cell line was originally derived from Burkitt's lymphoma patient. EBV maintains a latent state of replication in this cell line. Cells were maintained in RPMI 1640 with 10% fetal bovine serum containing 100 U penicillin per ml and 100 μg streptomycin per ml. The HDAC inhibitors used were from five different classes: a) short chain fatty acids, b) hydroxamic acids, c) benzamides, d) cyclic tetrapeptides, and e) largazoles.
Toxicity assays with two anti-herpesvirus drugs, Gancicovir (GCV) and Penciclovir (PCV), treated to P3HR1 cells alone was conducted as a control. A total of 3×10^5 P3HR1 cells were incubated with various concentrations of GCV or PCV and incubated for 6 days. Viable cell counts were measured and toxicity was expressed as percentage of cell growth compared to untreated cells.

[2] = system: HIV-1; conditions: OD converted to pg of protein; compared with vehicle alone
Method: Virus production (p24 release) was examined in an HIV-1-infected monocyte line. Cells were treated or not treated with HDAC-inhibitors and other compounds. P24 release expressed as optical density (“OD”) (FIG. 13), and then converted to pg of protein (FIG. 14). […] DMSO was vehicle for some of the compounds tested.

[3] = system: viral thymidine kinase; test: Expression of viral thymidine kinase in EBV-infected lymphocytes; assay type: cell-based
Description: Three such examples are as follows. First, many of the RNA viruses such as HIV and other retroviruses require a reverse transcriptase to transcribe their genome into DNA. A few of the agents that induce expression or activity of retroviruses and their encoded genes, such as, for example, reverse transcriptase, are known to those of ordinary skill in the art. Anti-viral agents such as nucleoside analogs can be administered to the patient. Those substrate analogs will be specifically recognized by the reverse transcriptase that, when incorporated into the infected-cell genome, prevent viral replication and may also result in cell death. Second, many viruses require an active protease to assemble virus capsids to be packaged with viral genome. Protease inhibitors or proteases that alter cleavage patterns so that packaging cannot occur can be specifically targeted with an anti-viral agent that comprises an amino acid analog or toxic conjugate. […] Ganciclovir or famcyclovir, in the presence of the viral thymidine kinase or other viral kinases, destroys the infected cell. Treatment of infected cells with both agents, according to the invention, will selectively destroy EBV virus-infected cells. In another aspect, of infected cells with both agents, according to the invention, will selectively disable or disrupt the viral activity within the cells in vivo.

[4] = system: EBV TK; test: TK mRNA level by reverse transcription and real-time PCR in P3HR1 cells; assay type: cell-based, Epstein-Barr virus
Method: To measure the relative level of TK mRNA in various total RNA preparations, reverse transcription and quantitative PCR using real time PCR technology was used. Five micrograms of total RNA was reverse-transcribed using random hexamer primers and Superscript III cDNA synthesis kit (Invitrogen). The cDNA was diluted to a final volume of 60 μl with sterile water, 8 μl of which was then used in each real time PCR reaction in an ABI 7500 […] using SYBR-Green technology. Primers used for the amplification of TK were EBV-TK1-F: 5′-[…]-3′; EBV-TK1-R: 5′-[…]-3′. The ß-actin mRNA level in those samples were determined similarly using ß-actin-specific primers Actin/hu-F: 5′-[…]-3′; Actin/hu-R: 5′-[…]-3′. The relative level of TK expression in a sample was calculated following normalization of ß-actin expression level.

[5] = system: EBV-TK; test: Induction of EBV-TK activity in EBV-immortalized B-cells and patient-derived tumor cells; assay type: cell-based, Epstein-Barr virus; conditions: preliminary in vitro studies
Description: In some embodiments, inducing agents include arginine butyrate and/or other histone deacetylase inhibitors. […] TK expression can be used as a point for attack by anti-viral agents, allowing for treatment of latent infections.
Treatment of patients with viral-associated tumors such as EBV with inducing agents such as arginine butyrate, to induce the expression of EBV-TK, and GCV, to eliminate EBV-TK expressing tumor cells, is an effective, non-toxic therapy. […] Without wishing to be bound by theory, it is believed that just the presence of the EBV genome in latent form would make the tumor susceptible to this combination protocol.

Compound: Oxamflatin
- reduction of cell growth in combination treatment with GCV [1]: synergistic activity with GCV
- activity level (growth suppression) in combination with GCV ([1]; 200 nM): more than what typically seen with 1.0 mM NaB

Compound: CCCCCCCCCCCCCC(=O)O[C@@H]1[C@@H](C)[C@@]2(O)[C@@H](C=C(CO)C[C@]3(O)C(=O)C(C)=C[C@@H]23)[C@@H]2C(C)(C)[C@]12OC(C)=O [PMA, phorbol myristate acetate]
- virus production (p24 release) [2]: active

Compound: CC(C)C(N)=O [isobutyramide]
- expression of viral thymidine kinase and other viral protein kinases [3]: enhance expression

Compound: CCCCCCCC(=O)SCC/C=C/[C@@H]1CC(=O)NCc2nc(cs2)C2=N[C@@](C)(CS2)C(=O)N[C@@H](C(C)C)C(=O)O1 [largazole]
- virus production (p24 release) [2]: active

Compound: O=C(CCCCCN1C(=O)c2cccc3cccc(c23)C1=O)NO [Scriptaid]
- reduction of cell growth in combination treatment with GCV ([1]; especially at 500 nM and 1 μM): strong synergistic effect with GCV

Compound: CCC(Nc1ncnc2ccccc12)C(=O)O (centres unmarked) [RB3]
- virus production (p24 release) [2]: increased viral production at levels similar to the control of vehicle alone

Compound: Cc1[nH]c2ccccc2c1CCNCc1ccc(/C=C/C(=O)NO)cc1 [LHB589, panobinostat]
- virus production (p24 release) [2]: active

Compound: Nc1nc2c(ncn2CCC(CO)CO)c(=O)[nH]1 [PCV, Penciclovir]
- toxicity to P3HR1 cells (percentage of cell growth compared to untreated cells) [1]: less toxic to the cells compared to GCV
- level of inhibition of cell growth at higher concentrations ([1]; in combination with Na-butyrate, concentrations higher than 40 μM): did not change significantly

Compound: Nc1ccccc1NC(=O)c1ccc(CNC(=O)OCc2cccnc2)cc1 [MS-275, 3-pyridinylmethyl [[4-[[(2-aminophenyl)amino]carbonyl]phenyl]methyl] carbamate]
- TK expression ([4]; 500 nM and higher concentrations): strongly induced TK expression
- TK expression ([4]; 6 hr post treatment): induced
- sensitizing P3HR1 cells to GCV-mediated effects ([1]; 500 nM): as efficient as 1.0 mM NaB
- sensitizing P3HR1 cells to GCV-mediated killing after short exposure ([1]; 24 hr exposure to MS-275+GCV, then GCV for up to 6 days): sensitized the cells to GCV-mediated effects as efficiently as a 72 hr continuous treatment

Compound: CC(/C=C/C(=O)NO)=C\[C@@H](C)C(=O)c1ccc(N(C)C)cc1 [TSA, trichostatin A]
- virus production (p24 release) [2]: active

Compound: arginine butyrate
- expression of viral thymidine kinase and other viral protein kinases [3]: enhance expression
- virus production (p24 release) [2]: active
- EBV-TK activity [5]: induces EBV-TK activity

Compound: CCCC(=O)[O-].[Na+] [NaB, Na-butyrate]
- optimal concentration for combination treatment with GCV [1]: 1.0 mM
- cell growth with inducing agent alone ([1]; NaB alone at a concentration higher than 1.0 mM): reduces cell growth to a significant degree
- synergistic effects of GCV ([1]; NaB at concentrations higher than 1.0 mM): lost

Compound: CCCC(CCC)C(=O)O [VA, valproic acid]
- TK expression (TK mRNA level) [4]: less efficient than NaB
- reduction of cell growth in combination treatment with GCV [1]: very similar activity

Compound: CCC(=O)CCCCC[C@@H]1NC(=O)[C@H]2CCCCN2C(=O)[C@H]([C@@H](C)CC)NC(=O)[C@H](Cc2cn(OC)c3ccccc23)NC1=O [apicidin]
- virus production (p24 release) [2]: active
- cell growth without any GCV ([1]; 200 nM): significantly retarded
- toxicity to the cells ([1]; 500 nM): very toxic to the cells
- toxicity to the cells ([1]; apicidin alone, concentrations higher than 200 nM): quite toxic to the cells
- reduction of cell growth over cells treated with apicidin alone ([1]; combination with GCV, 100 nM and 200 nM): 40-50%

Compound: O=C(/C=C/c1cccc(S(=O)(=O)Nc2ccccc2)c1)NO [PXD101, Belinostat]
- TK expression ([4]; 5 μM): high level of TK expression

Compound: CCC(C)(C)C(=O)O [ST20, 2,2-dimethyl butyrate]
- virus production (p24 release) [2]: increased viral production at levels similar to the control of vehicle alone

Compound: O=C(CCCCCCC(=O)Nc1ccccc1)NO [SAHA, suberoyl anilide hydroxamic acid]
- TK expression (TK mRNA level) [4]: higher level than that seen with efficient concentrations of butyrate (1.0 mM)
- reduction of cell growth in combination treatment with GCV [1]: less effective in reducing cell growth when combined with an antiviral agent compared to butyrate
